Test results taken from ChEMBL document CHEMBL1146314, “Methotrexate gamma-hydroxamate derivatives as potential dual target antitumor drugs” (Bioorg Med Chem, 2007).

Tests used:
[1] = target: T1, Matrix metalloproteinase-14 (Homo sapiens, UniProt P50281); assay: Inhibition of human recombinant MMP14
Dihydrofolate reductase [2] = target: T2, Dihydrofolate reductase (Homo sapiens, UniProt P00374)
T2 sequence (P00374 whole entry): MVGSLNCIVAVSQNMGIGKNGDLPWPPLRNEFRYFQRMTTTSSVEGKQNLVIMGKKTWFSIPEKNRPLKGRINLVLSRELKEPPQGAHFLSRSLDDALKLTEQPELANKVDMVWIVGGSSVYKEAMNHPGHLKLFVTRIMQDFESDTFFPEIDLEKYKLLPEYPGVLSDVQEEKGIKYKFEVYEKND
Description: Inhibition of DHFR using dihydrofolic acid substrate

[3] = target: T3, Matrilysin (Homo sapiens) (UniProt P09237); assay: Ratio of IC50 of drug to CGS 27023A for human recombinant MMP7
T3 sequence (whole entry): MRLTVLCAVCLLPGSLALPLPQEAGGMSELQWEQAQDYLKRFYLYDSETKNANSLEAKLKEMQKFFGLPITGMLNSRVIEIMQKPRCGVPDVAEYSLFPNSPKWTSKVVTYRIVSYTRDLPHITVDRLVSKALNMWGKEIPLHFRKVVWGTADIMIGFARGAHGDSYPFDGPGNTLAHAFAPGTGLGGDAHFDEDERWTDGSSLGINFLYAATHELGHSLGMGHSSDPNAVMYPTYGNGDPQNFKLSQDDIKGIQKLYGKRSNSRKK

PPC-1 [4] = assay: Antiproliferative activity against PPC1 cells after 72 hrs in folate depleted media; assay type: functional, cell-based; conditions: Homo sapiens, PPC-1, 72 h
[5] = target: T4, 72 kDa type IV collagenase (Homo sapiens, UniProt P08253); assay: Inhibition of human recombinant MMP2
Target sequence in this assay (P08253 whole entry): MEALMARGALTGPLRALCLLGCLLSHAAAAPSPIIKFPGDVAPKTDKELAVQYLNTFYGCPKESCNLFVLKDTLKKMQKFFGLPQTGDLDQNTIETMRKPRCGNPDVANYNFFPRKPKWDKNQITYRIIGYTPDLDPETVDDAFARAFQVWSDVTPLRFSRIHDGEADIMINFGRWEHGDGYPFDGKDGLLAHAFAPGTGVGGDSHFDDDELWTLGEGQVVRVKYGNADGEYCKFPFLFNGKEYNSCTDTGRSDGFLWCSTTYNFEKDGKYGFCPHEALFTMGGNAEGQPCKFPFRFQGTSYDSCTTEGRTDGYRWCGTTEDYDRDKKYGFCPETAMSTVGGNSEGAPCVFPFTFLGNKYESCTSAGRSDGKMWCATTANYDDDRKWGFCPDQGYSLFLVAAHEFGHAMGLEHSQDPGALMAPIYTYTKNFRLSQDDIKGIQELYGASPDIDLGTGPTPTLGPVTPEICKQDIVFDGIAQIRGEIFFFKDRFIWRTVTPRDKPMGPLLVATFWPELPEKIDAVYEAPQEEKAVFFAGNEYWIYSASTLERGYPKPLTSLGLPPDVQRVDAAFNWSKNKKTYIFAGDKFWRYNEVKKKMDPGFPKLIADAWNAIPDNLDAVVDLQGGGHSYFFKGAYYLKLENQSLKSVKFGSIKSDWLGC

[6] = Antiproliferative activity against Tsu-Pr1 cells after 72 hrs in folate depleted media; assay type: functional, cell-based; conditions: Homo sapiens, TSU-Pr1, 72 h
[7] = target: T5, Matrix metalloproteinase-9 (Homo sapiens, UniProt P14780); assay: Ratio of IC50 of drug to CGS 27023A for human recombinant MMP9
T5 sequence (P14780 whole entry): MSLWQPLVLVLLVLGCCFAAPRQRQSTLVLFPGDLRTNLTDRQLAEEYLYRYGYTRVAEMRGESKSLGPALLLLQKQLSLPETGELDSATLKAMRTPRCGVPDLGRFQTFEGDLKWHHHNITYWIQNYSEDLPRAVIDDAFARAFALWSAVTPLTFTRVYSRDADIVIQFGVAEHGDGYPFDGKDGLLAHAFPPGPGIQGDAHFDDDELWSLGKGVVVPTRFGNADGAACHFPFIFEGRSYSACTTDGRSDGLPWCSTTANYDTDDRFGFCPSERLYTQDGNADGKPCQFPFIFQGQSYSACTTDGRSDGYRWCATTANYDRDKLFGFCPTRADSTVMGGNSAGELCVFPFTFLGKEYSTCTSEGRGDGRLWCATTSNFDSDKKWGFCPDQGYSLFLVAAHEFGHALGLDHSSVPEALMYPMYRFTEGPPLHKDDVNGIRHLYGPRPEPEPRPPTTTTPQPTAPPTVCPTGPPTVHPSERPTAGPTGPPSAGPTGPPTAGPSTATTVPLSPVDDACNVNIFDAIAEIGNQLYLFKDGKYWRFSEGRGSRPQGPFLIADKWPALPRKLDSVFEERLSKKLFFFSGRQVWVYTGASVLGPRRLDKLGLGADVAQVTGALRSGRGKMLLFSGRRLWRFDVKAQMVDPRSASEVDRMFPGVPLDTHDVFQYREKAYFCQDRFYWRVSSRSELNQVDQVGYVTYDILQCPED

[8] = target: T5, Matrix metalloproteinase-9; assay: Inhibition of human recombinant MMP9
[9] = target: T4, 72 kDa type IV collagenase; assay: Ratio of IC50 of drug to CGS 27023A for human recombinant MMP2
Target sequence in this assay (P08253 110-660 limits assumed): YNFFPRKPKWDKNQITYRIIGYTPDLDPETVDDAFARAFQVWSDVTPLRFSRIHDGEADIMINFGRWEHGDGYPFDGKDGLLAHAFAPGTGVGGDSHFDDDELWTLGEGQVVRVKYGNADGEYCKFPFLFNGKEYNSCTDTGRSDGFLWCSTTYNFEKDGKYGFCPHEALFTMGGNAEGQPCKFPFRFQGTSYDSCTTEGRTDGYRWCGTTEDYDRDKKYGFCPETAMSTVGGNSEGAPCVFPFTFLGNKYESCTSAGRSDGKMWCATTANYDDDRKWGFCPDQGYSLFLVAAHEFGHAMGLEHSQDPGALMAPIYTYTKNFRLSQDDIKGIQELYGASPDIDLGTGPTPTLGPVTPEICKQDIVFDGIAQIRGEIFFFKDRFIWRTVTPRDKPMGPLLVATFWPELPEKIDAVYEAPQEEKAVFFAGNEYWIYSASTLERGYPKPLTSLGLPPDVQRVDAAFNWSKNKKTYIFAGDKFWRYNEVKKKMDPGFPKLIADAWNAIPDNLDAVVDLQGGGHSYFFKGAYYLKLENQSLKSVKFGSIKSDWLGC

Matrilysin = target: T6, Matrilysin (Homo sapiens, UniProt P09237); assay: Inhibition of human recombinant MMP7
T6 sequence (P09237 whole entry): T3 sequence (whole entry)

A549 [10] = assay: Antiproliferative activity against A549 cells after 72 hrs in folate depleted media; assay type: functional, cell-based; conditions: Homo sapiens, A549, 72 h
Dihydrofolate reductase [11] = target: T2, Dihydrofolate reductase; remark: listed apart in the source
Description: Inhibition of DHFR using folic acid substrate

[12] = target: T1, Matrix metalloproteinase-14; assay: Ratio of IC50 of drug to CGS 27023A for human recombinant MMP14
[13] = Antiproliferative activity against Tsu-Pr1 cells after 72 hrs by MTT assay; assay type: functional, cell-based; conditions: Homo sapiens, TSU-Pr1, 72 h
PPC-1 [14] = assay: Antiproliferative activity against PPC1 cells after 72 hrs by MTT assay; assay type: functional, cell-based; conditions: Homo sapiens, PPC-1, 72 h
A549 [15] = assay: Antiproliferative activity against A549 cells after 72 hrs by MTT assay; assay type: functional, cell-based; conditions: Homo sapiens, A549, 72 h
[16] = target: T3, Matrilysin (Homo sapiens); assay: Inhibition of human recombinant MMP7 at 100 uM
[17] = target: T1, Matrix metalloproteinase-14; assay: Inhibition of human recombinant MMP14 at 100 uM
[18] = target: T4, 72 kDa type IV collagenase; assay: Inhibition of human recombinant MMP2 at 100 uM
Target sequence in this assay (P08253 110-660 limits assumed): as above

[19] = target: T5, Matrix metalloproteinase-9; assay: Inhibition of human recombinant MMP9 at 100 uM

| Compound | IC50 [1] [nM] | IC50 (Dihydrofolate reductase [2]) [nM] | Ratio IC50 [3] | IC50 (PPC-1 [4]) [nM] | IC50 [5] [nM] | IC50 [6] [nM] | Ratio IC50 [7] | IC50 [8] [nM] | Ratio IC50 [9] | IC50 (Matrilysin) [nM] | IC50 (A549 [10]) [nM] | IC50 (Dihydrofolate reductase [11]) [nM] | Ratio IC50 [12] | IC50 [13] [nM] | IC50 (PPC-1 [14]) [nM] | IC50 (A549 [15]) [nM] | inhibition [16] [%] | inhibition [17] [%] | inhibition [18] [%] | inhibition [19] [%] |
| --- | --- | --- | --- | --- | --- | --- | --- | --- | --- | --- | --- | --- | --- | --- | --- | --- | --- | --- | --- | --- |
| CN(Cc1cnc2nc(N)nc(N)c2n1)c1ccc(C(=O)N[C@@H](CCC(=O)N[C@@H](Cc2ccccc2)C(=O)NO)C(=O)O)cc1 | 70000 | 170 | 440 | 500 | 60000 | 120 | 3000 | 15000 | 2500 | 44000 | 500 | 250 | 3040 | 2000 | 4800 | 6500 | – | – | – | – |
| Nc1nc2ncc(CNc3ccc(C(=O)N[C@@H](CCC(=O)NO)C(=O)O)cc3)nc2c(=O)[nH]1 | – | – | – | – | – | – | – | – | – | – | – | – | – | 120000 | 80000 | 100000 | 53 | 42 | 66 | 55 |
| CN(Cc1cnc2nc(N)nc(N)c2n1)c1ccc(C(=O)N[C@@H](CCC(=O)NO)C(=O)O)cc1 | – | 70 | – | 50 | – | 10 | – | – | – | 100000 | 100 | 170 | – | 2000 | 2000 | 6000 | – | 48 | 67 | 61 |
| CN(Cc1cnc2nc(N)nc(N)c2n1)c1ccc(C(=O)N[C@@H](CCC(=O)O)C(=O)O)cc1 [METHOTREXATE] | – | – | – | 10 | – | 8 | – | – | – | – | 20 | – | – | 100 | 100 | 100 | – | – | – | – |
| NC1=NC(=O)C2N=C(CNc3ccc(C(=O)N[C@@H](CCC(=O)N4CCC[C@H]4C(=O)NO)C(=O)O)cc3)C=NC2=N1 (stereo not given in full) | – | – | – | – | – | – | – | – | – | – | – | – | – | 80000 | 120000 | 130000 | 54 | – | 58 | – |
| COc1ccc(S(=O)(=O)N(Cc2cccnc2)[C@@H](C(=O)NO)C(C)C)cc1 [CGS-27023A] | 23 | – | – | – | – | – | – | – | – | – | – | – | – | – | – | – | – | – | – | – |
| Nc1nc2ncc(CNc3ccc(C(=O)N[C@@H](CCC(=O)N[C@@H](Cc4ccccc4)C(=O)NO)C(=O)O)cc3)nc2c(=O)[nH]1 | 80000 | – | 150 | – | 65000 | – | 4400 | 22000 | 2710 | 15000 | – | – | 3480 | 150000 | 70000 | 110000 | – | – | – | – |
| CN(Cc1cnc2nc(N)nc(N)c2n1)c1ccc(C(=O)N[C@@H](CCC(=O)N2CCC[C@H]2C(=O)NO)C(=O)O)cc1 | – | 120 | – | 200 | – | 100 | – | – | – | – | 500 | 130 | – | 2300 | 1800 | 7500 | 43 | 47 | 56 | 61 |
